From patent US11999716B2, “WDR5 inhibitors and modulators” (priority 2018, dated 2024)
Where two headings read alike, the source gives them in different places.

Test system: MV4:11 human cancer cell lines
Test: Cellular viability / anti-proliferative activity, CellTiter-Glo, 5 day protocol
Format: cell-based
Details: Homo sapiens, MV4-11, 120 h, read-out: GI50 on cellular proliferation of MV4:11 human cancer cell lines
Outline: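 Compounds were tested over 22 two-fold dilutions starting at 30 μM in 0.3% DMSO, with 200 cells per well (7200 cells/mL). Viability was measured by CellTiter-Glo luminescence at day 5.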

[1] = MV4:11 cells, 5 day incubation, CellTiter-Glo, mean of minimum two replicates

GI50 [1] [nM] | SMILES | GI50 [nM]
159 | COc1cc(CN2CCc3c(cc(CNC(=N)C4CC4)cc3-c3ccc(F)cc3C)C2=O)cc(OC)c1 [Example 118, N-((2-(3,5-Dimethoxybenzyl)-5-(4-fluoro-2-methylphenyl)-1-oxo-1,2,3,4-tetrahydroisoquinolin-7-yl)methyl)cyclopropanecarboximidamide] | –
> 938 | COc1ccnc(CN2CCc3c(cc(CNC(=N)C4CC4)cc3-c3cn(C)nc3C)C2=O)c1 [Example 119, N-((5-(1,3-Dimethyl-1H-pyrazol-4-yl)-2-((4-methoxypyridin-2-yl)methyl)-1-oxo-1,2,3,4-tetrahydroisoquinolin-7-yl)methyl)cyclopropanecarboximidamide] | –
> 938 | COc1ccnc(CN2CCc3c(cc(CNC(=N)C(F)(F)F)cc3-c3cn(C)nc3C(F)(F)F)C2=O)c1 [Example 120, 2,2,2-Trifluoro-N-((2-((4-methoxypyridin-2-yl)methyl)-5-(1-methyl-3-(trifluoromethyl)-1H-pyrazol-4-yl)-1-oxo-1,2,3,4-tetrahydroisoquinolin-7-yl)methyl)acetimidamide] | –
134 | COc1cc(CN2CCc3c(cc(Cn4cnn(C)c4=N)cc3-c3ccc(F)cc3C)C2=O)cc(OC)c1 [Example 121, 2-(3,5-Dimethoxybenzyl)-5-(4-fluoro-2-methylphenyl)-7-((5-imino-1-methyl-1,5-dihydro-4H-1,2,4-triazol-4-yl)methyl)-3,4-dihydroisoquinolin-1(2H)-one] | –
< 50 | COc1cc(CN2CCc3c(cc(Cn4cnn(C)c4=N)cc3-c3cn(C)nc3C(F)(F)F)C2=O)cc(OC)c1 [Example 122, 2-(3,5-Dimethoxybenzyl)-7-((5-imino-1-methyl-1,5-dihydro-4H-1,2,4-triazol-4-yl)methyl)-5-(1-methyl-3-(trifluoromethyl)-1H-pyrazol-4-yl)-3,4-dihydroisoquinolin-1(2H)-one] | –
935 | COc1cc(CN2CCc3c(cc(Cn4cnn(C)c4=N)cc3-c3ncc(F)cc3C)C2=O)cc(OC)c1 [Example 124, 2-(3,5-Dimethoxybenzyl)-5-(5-fluoro-3-methylpyridin-2-yl)-7-((5-imino-1-methyl-1,5-dihydro-4H-1,2,4-triazol-4-yl)methyl)-3,4-dihydroisoquinolin-1(2H)-one] | –
345 | COc1cc(CN2CCc3c(cc(Cn4cnn(C)c4=N)cc3-c3ccc(C)nc3C)C2=O)cc(OC)c1 [Example 127, 2-(3,5-Dimethoxybenzyl)-5-(2,6-dimethylpyridin-3-yl)-7-((5-imino-1-methyl-1,5-dihydro-4H-1,2,4-triazol-4-yl)methyl)-3,4-dihydroisoquinolin-1(2H)-one] | –
845 | COc1ccnc(CN2CCc3c(cc(Cn4cnsc4=N)cc3-c3cn(C)nc3C(F)(F)F)C2=O)c1 [Example 130, 7-((5-Imino-1,2,4-thiadiazol-4(5H)-yl)methyl)-2-((4-methoxypyridin-2-yl)methyl)-5-(1-methyl-3-(trifluoromethyl)-1H-pyrazol-4-yl)-3,4-dihydroisoquinolin-1(2H)-one] | –
173 | COc1cc(CN2CCc3cc(F)c(CNC4=NCCN4)cc3C2=O)cc(OC)c1 [Example 133, 7-(((4,5-Dihydro-1H-imidazol-2-yl)amino)methyl)-2-(3,5-dimethoxybenzyl)-6-fluoro-3,4-dihydroisoquinolin-1(2H)-one] | –
> 938 | COc1ccnc(CN2CCc3c(cc(CNC4=NCCO4)cc3-c3cn(C)nc3C)C2=O)c1 [Example 134, 7-(((4,5-Dihydrooxazol-2-yl)amino)methyl)-5-(1,3-dimethyl-1H-pyrazol-4-yl)-2-((4-methoxypyridin-2-yl)methyl)-3,4-dihydroisoquinolin-1(2H)-one] | –
200 | COc1cc(CN2CCCc3c(cc(Cn4ccn(C)c4=N)cc3-c3ccc(F)cc3C)C2=O)cc(OC)c1 [Example 140, 2-(3,5-Dimethoxybenzyl)-6-(4-fluoro-2-methylphenyl)-8-((2-imino-3-methyl-2,3-dihydro-1H-imidazol-1-yl)methyl)-2,3,4,5-tetrahydro-1H-benzo[c]azepin-1-one] | –
> 938 | COc1cc(CN2CCCc3c(cc(Cn4ccnc4C)cc3-c3ccc(F)cc3C)C2=O)cc(OC)c1 [Example 141, 2-(3,5-dimethoxybenzyl)-6-(4-fluoro-2-methylphenyl)-8-((2-methyl-1H-imidazol-1-yl)methyl)-2,3,4,5-tetrahydro-1H-benzo[c]azepin-1-one] | –

The next lines start with the compound.

SMILES | GI50 [1] [nM] | GI50 [nM]
CCn1cc(-c2cc(Cn3cnn(C)c3=N)cc3c2CCN(Cc2cc(OC)ccn2)C3=O)c(C(F)(F)F)n1 [Example 123, 5-(1-Ethyl-3-(trifluoromethyl)-1H-pyrazol-4-yl)-7-((5-imino-1-methyl-1,5-dihydro-4H-1,2,4-triazol-4-yl)methyl)-2-((4-methoxypyridin-2-yl)methyl)-3,4-dihydroisoquinolin-1(2H)-one] | < 50 | –
COc1ccnc(CN2CCc3c(cc(Cn4nc5ccccn5c4=N)cc3-c3cn(C)nc3C(F)(F)F)C2=O)c1 [Example 125, 7-((3-Imino-[1,2,4]triazolo[4,3-a]pyridin-2(3H)-yl)methyl)-2-((4-methoxypyridin-2-yl)methyl)-5-(1-methyl-3-(trifluoromethyl)-1H-pyrazol-4-yl)-3,4-dihydroisoquinolin-1(2H)-one] | > 938 | –
Cc1ccnc([C@H](C2CC2)N2CCc3c(cc(Cn4cnn(C)c4=N)cc3-c3ccc(F)cc3C)C2=O)c1 [Example 126, (S)-2-(Cyclopropyl(4-methylpyridin-2-yl)methyl)-5-(4-fluoro-2-methylphenyl)-7-((5-imino-1-methyl-1,5-dihydro-4H-1,2,4-triazol-4-yl)methyl)-3,4-dihydroisoquinolin-1(2H)-one] | < 50 | –
CCn1cc(-c2cc(Cn3cnn(C)c3=N)cc3c2CCN(Cc2cc(C)nn2C)C3=O)c(C(F)(F)F)n1 [Example 128, 2-((1,3-Dimethyl-1H-pyrazol-5-yl)methyl)-7-((5-imino-1-methyl-1,5-dihydro-4H-1,2,4-triazol-4-yl)methyl)-5-(1-ethyl-3-(trifluoromethyl)-1H-pyrazol-4-yl)-3,4-dihydroisoquinolin-1(2H)-one] | > 938 | –
CCc1ccnc(CN2CCc3c(cc(Cn4cnn(C)c4=N)cc3-c3cn(CC)nc3C(F)(F)F)C2=O)c1 [Example 129, 5-(1-Ethyl-3-(trifluoromethyl)-1H-pyrazol-4-yl)-2-((4-ethylpyridin-2-yl)methyl)-7-((5-imino-1-methyl-1,5-dihydro-4H-1,2,4-triazol-4-yl)methyl)-3,4-dihydroisoquinolin-1(2H)-one] | < 50 | –
COc1ccnc(CN2CCc3c(cc(Cc4cncn4C)cc3-c3cn(C)nc3C(F)(F)F)C2=O)c1 [Example 131, 2-((4-Methoxypyridin-2-yl)methyl)-7-((1-methyl-1H-imidazol-5-yl)methyl)-5-(1-methyl-3-(trifluoromethyl)-1H-pyrazol-4-yl)-3,4-dihydroisoquinolin-1(2H)-one] | – | > 938
COc1ccnc(CN2CCc3c(cc(Cc4ncc[nH]4)cc3-c3cn(C)nc3C(F)(F)F)C2=O)c1 [Example 132, 7-((1H-Imidazol-2-yl)methyl)-2-((4-methoxypyridin-2-yl)methyl)-5-(1-methyl-3-(trifluoromethyl)-1H-pyrazol-4-yl)-3,4-dihydroisoquinolin-1(2H)-one] | – | < 50
COc1ccnc(CN2CCc3c(cc(CNc4nnc5ccccn45)cc3-c3cn(C)nc3C(F)(F)F)C2=O)c1 [Example 135, 7-(([1,2,4]Triazolo[4,3-a]pyridin-3-ylamino)methyl)-2-((4-methoxypyridin-2-yl)methyl)-5-(1-methyl-3-(trifluoromethyl)-1H-pyrazol-4-yl)-3,4-dihydroisoquinolin-1(2H)-one] | > 938 | –
COc1ccnc(CN2Cc3c(cc(Cn4ccn(C)c4=N)cc3C3CC3)C2=O)c1 [Example 136, 4-Cyclopropyl-6-((2-imino-3-methyl-2,3-dihydro-1H-imidazol-1-yl)methyl)-2-((4-methoxypyridin-2-yl)methyl)isoindolin-1-one] | > 938 | –
CCn1cc(-c2cc(Cn3ccn(C)c3=N)cc3c2CN(Cc2cc(OC)ccn2)C3=O)c(C(F)(F)F)n1 [Example 137, 4-(1-Ethyl-3-(trifluoromethyl)-1H-pyrazol-4-yl)-6-((2-imino-3-methyl-2,3-dihydro-1H-imidazol-1-yl)methyl)-2-((4-methoxypyridin-2-yl)methyl)isoindolin-1-one] | 944 | –
COc1ccnc(CN2Cc3c(cc(Cn4ccn(C)c4=N)cc3-c3ccc(F)cc3C)C2=O)c1 [Example 138, 4-(4-Fluoro-2-methylphenyl)-6-((2-imino-3-methyl-2,3-dihydro-1H-imidazol-1-yl)methyl)-2-((4-methoxypyridin-2-yl)methyl)isoindolin-1-one] | 2280 | –
COc1ccnc(CN2Cc3c(cc(Cn4ccn(C)c4=N)cc3-c3cccnc3C)C2=O)c1 [Example 139, 6-((2-Imino-3-methyl-2,3-dihydro-1H-imidazol-1-yl)methyl)-2-((4-methoxypyridin-2-yl)methyl)-4-(2-methylpyridin-3-yl)isoindolin-1-one] | > 938 | –
Cc1cc([C@H](C)N2CCc3c(cc(CNc4cccc(=O)[nH]4)cc3-c3cn(C)nc3C(F)(F)F)C2=O)ccc1F [Example 142, (S)-2-(1-(4-Fluoro-3-methylphenyl)ethyl)-5-(1-methyl-3-(trifluoromethyl)-1H-pyrazol-4-yl)-7-(((6-oxo-1,6-dihydropyridin-2-yl)amino)methyl)-3,4-dihydroisoquinolin-1(2H)-one] | > 938 | –
Cc1cc([C@H](C)N2CCc3c(cc(Cn4ccn(C)c4=N)cc3-c3cn(C)nc3C)C2=O)ccc1F [Example 143, (S)-5-(1,3-Dimethyl-1H-pyrazol-4-yl)-2-(1-(4-fluoro-3-methylphenyl)ethyl)-7-((2-imino-3-methyl-2,3-dihydro-1H-imidazol-1-yl)methyl)-3,4-dihydroisoquinolin-1(2H)-one] | < 50 | –
